Experimental data: patent publication US20130158024A1, “TRICYCLIC NECROSTATIN COMPOUNDS” (priority 2005, published 2013)
“Also recorded” adds a separate entry of the source.

Columns and labels:
B cell = B cell activation (LPS/IL-4) of splenocytes suppressed by zVAD.fmk, FACS; format: cell-based, mouse; conditions: 100 μM zVAD.fmk, 30 μM compound, 72 hours
Protocol: Cells were stained with αB220-FITC antibody (Pharmingen), and B cell numbers were determined by FACS. Cell numbers are normalized to the number of cells in unstimulated control, which was set as 100%.

RIP2 = target: T1, RIP2 (Homo sapiens, UniProt O43353); test: In vitro kinase assay: autophosphorylation of RIP2; format: biochemical; conditions: RIP2-Myc from transfected 293T cells
T1 construct: expressed in transfected cells; host or cells: 293T
Excerpt: 293T cells were transfected with RIP-FLAG or RIP2-Myc vectors. […] Major bands corresponding to phosphorylated RIP, RIP2, asterisks, and IgG are shown.

CD8+ cells = test: Activation and proliferation of CD8+ cytotoxic T lymphocytes (CTL) suppressed by zVAD.fmk; format: cell-based, mouse; conditions: 100 μM zVAD.fmk, 30 μM compound
Protocol: Numbers of cells were determined using FACS analyses. Cell numbers are normalized to the number of cells in unstimulated control, which was set as 100%. […] Cells were stained with αCD8^+-FITC antibody (Pharmingen) and CD8^+ cell numbers were determined by FACS. Cell numbers are normalized to the number of cells in unstimulated control, which was set as 100%. Percentages of dead cells (line) was determined by co-staining cells with propidium iodide.
Values represent fold increase over unstimulated control.
Cells were stained with αCD8^+-FITC antibody (Pharmingen), and CD8^+ cell numbers were determined by FACS. Cell numbers are normalized to the number of cells in unstimulated control, which was set as 100%. Percentages of dead cells (line) were determined by co-staining cells with propidium iodide.

U937 cells = test: Necrosis of U937 cells induced by TNFα and zVAD.fmk (primary and secondary screen), ATP assay; format: cell-based, human; conditions: U937, 72 hours
Protocol: We plated U937 cells in 384-well plates at 5,000-10,000 cells per well in 40-μl phenol red-free RPMI 1640 medium containing 100 μM zVAD.fmk and 40 ng ml^−1 human TNFα using a Multidrop dispenser (Thermo Electron). We added 100 nl of the DiverSetE (5 mg ml^−1 in DMSO, Chembridge) using a Seiko-based custom-built pin transfer robot (Institute of Chemistry and Cell Biology, Harvard Medical School). After 72 hours, we assessed cell viability using a luminescence-based ATP assay (ATPLite-M, PerkinElmer). We also dispensed cells not treated with TNFα in each plate as a positive control. We purchased Nec-1 and other preliminary positive hits from Chembridge for individual retesting.
Using a known paradigm of death receptor mediated caspase-independent cell death in human U937 cells, we established a high-throughput screen in 384 well format for small molecule inhibitors of caspase-independent cell death (CICD). In this system, U937 cells were induced to undergo CICD in the presence of TNFα and zVAD.fmk, and the rate of cell death was determined by an ATP-Lite-M assay, a commercial luminescence-based assay measuring cellular ATP levels (Packard). U937 cells were chosen because these cells can be induced to undergo CICD very efficiently upon TNFα/zVAD treatment in the absence of additional, stress-inducing sensitizing stimuli, such as CHX, making this system perfectly suited for reliable identification of CICD inhibitors. Furthermore, rapid suspension growth kinetics of U937 cells results in the availability of large quantities of cells, which translates into robust signals ideal for high throughput screening. ATP-Lite-M assay was chosen because among all the different assay systems tested, it gives the most consistent and robust signal, which is also critical for high throughput screening. Exposure of U937 cells to TNFα alone led to partial cell death, whereas co-treatment with TNFα and caspase inhibitor zVAD.fmk produced significant increase in the amount of cell death and ATP loss consistent with the published observations. In addition, in the presence of zVAD.fmk, the morphology of cell loss changed from apoptosis with cell shrinkage, nuclear fragmentation, membrane blebbing to necrosis, characterized by cell swelling, increase in cytosolic density, and early loss of plasma membrane integrity. Other cell death assays, such as an MTT assay (mitochondrial metabolism) and Sytox assay (permeability of the plasma membrane), were used as alternative means to validate the screen, and consistently produced results similar to those obtained using ATP-Lite-M assay, which confirmed that the ATP-Lite-M assay can be used to accurately measure the extent of CICD.
In a primary screen, U-937 cells (5×10^5 or 7.5×10^5 cells/ml) were first exposed to zVAD-fmk (100 μM). Thirty minutes later the same cells were exposed to a chemical compound from the library (5 mg/ml, dissolved in 0.1-0.5 μl of DMSO, giving a final DMSO concentration of 0.3% to 1.5%). After an additional thirty minutes, TNFα (40 ng/ml) was added to the cell culture medium. The cells were then incubated at 37 C for 72 hours, and were then assayed for cellular ATP levels. […] Compounds which maintained cellular ATP levels were compounds which blocked necrosis triggered by zVAD-fmk and TNFα.
In a secondary screen, the compounds identified from the first screen, above, to decrease necrosis induced by zVAD-fmk and TNFα were assayed for their potency. Serial dilution of each chemical compound was performed and the compounds were administered to U-937 cells, as per the primary screen. The concentrations of each compound were 70 μM, 23 μM, 8 μM, and 2.5 μM. The level of necrosis occurring in response to zVAD-fmk, TNFα, and the various concentrations of chemical compounds was assayed as described above for the primary screen.

[1] = system: Primary mouse CD4+ and CD8+ T cells; test: Activation-induced cell death (AICD) of primary CD4+ and CD8+ T cells; format: cell-based
Protocol: Cell viability was assessed using Sytox Green (Molecular Probes) (CD8) or propidium iodide exclusion (CD4) assays in FIG. 17A or ATP assay in FIG. 17B. Numbers represent the percentages of live cells normalized to the corresponding compound treated controls lacking αCD3.

RAW264.7 cells = test: LPS/zVAD.fmk-induced CICD of RAW264.7 macrophage cells, ATP assay; format: cell-based, mouse; conditions: 10 ng/ml LPS, 50 or 100 μM zVAD.fmk, 30 μM Nec-1, 24 hours
Protocol: Cell viability was determined 24 hours later using an ATP assay. Values represent the percentages of live cells normalized to the control DMSO-treated cells.

BALB/c 3T3 cells = test: CICD of BALB/c 3T3 cells induced by TNFα/zVAD.fmk; format: cell-based, mouse
Protocol: Cell viability in this and subsequent panels was determined by ATP-based viability assay. Numbers represent percentages of the live cells normalized to those in the untreated control wells. Throughout, error bars represent standard deviations. […] Cells were treated with TNFα (E, F, H), zVAD.fmk (E, F), or CHX (F) for 16 (F) or 24 (E, H) hours. Numbers represent viability normalized to that of the compound-treated cells in the absence of TNFα.
The cells (5×10^5 cells/ml) were exposed to zVAD-fmk (100 μM) and human TNFα (40 ng/ml) for 72 hours. Induction of necrosis was assayed by measuring the cellular ATP levels in response to TNFα (Crouch et al., supra, Storer et al., supra, and Cree et al., supra).

T1 sequence (O43353 whole entry, species assumed): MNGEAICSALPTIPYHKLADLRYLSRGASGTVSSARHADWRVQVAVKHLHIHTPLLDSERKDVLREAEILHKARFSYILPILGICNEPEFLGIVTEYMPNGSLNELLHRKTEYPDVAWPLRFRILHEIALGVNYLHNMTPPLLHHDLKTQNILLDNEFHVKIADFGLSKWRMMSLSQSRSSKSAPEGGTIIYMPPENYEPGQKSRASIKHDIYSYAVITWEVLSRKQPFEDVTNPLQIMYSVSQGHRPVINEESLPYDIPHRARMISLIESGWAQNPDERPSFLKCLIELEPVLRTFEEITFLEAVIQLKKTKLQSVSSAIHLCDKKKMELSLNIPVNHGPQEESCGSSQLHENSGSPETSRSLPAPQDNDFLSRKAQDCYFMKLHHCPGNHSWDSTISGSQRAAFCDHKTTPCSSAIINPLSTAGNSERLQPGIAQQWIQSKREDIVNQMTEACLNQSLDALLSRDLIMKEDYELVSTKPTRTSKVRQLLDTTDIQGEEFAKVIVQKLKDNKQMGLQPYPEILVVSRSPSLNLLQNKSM

For methylthiohydantoin-tryptophane [Nec-1], the “B cell activation in the presence of zVAD.fmk, in words” value (B cell) was “promotes B cell activation; also recorded: attenuated suppression of B cell activation by zVAD.fmk”, the “effect on RIP2 autophosphorylation, in words” value (RIP2) was “lack of a Nec-1 effect on RIP2 autophosphorylation; also recorded: had no effect on RIP2 autophosphorylation” and the “restoration of CTL activation/proliferation suppressed by zVAD.fmk, in words” value (CD8+ cells) was “restores normal activation of CTLs inhibited by caspase inhibition; also recorded: restoration of CTL proliferation by Nec-1; also recorded: completely suppressed by Nec-1; also recorded: suppression of cell proliferation was prevented in the presence of Nec-1”. The “inhibition of necrosis induced by TNFα/zVAD.fmk, in words” value (U937 cells) was “inhibition of cell death of U937 cells treated with TNFα and zVAD.fmk for 72 hours; also recorded: provided expected protection against TNFα/zVAD.fmk; also recorded: efficiently blocked necroptotic death in U937 cells in a concentration-dependent fashion”, the “effect on AICD together with zVAD.fmk, in words” value ([1]; 100 μM zVAD.fmk and 30 μM Nec-1, 48 hours) was “inhibition of AICD by Nec-1; also recorded: together efficiently abrogated cell death” and the “effect on AICD, compound alone, in words” value ([1]; re-activated CD4+ cells) was “displayed very little effect on the viability of re-activated T cells in the absence of zVAD.fmk”. The “protection from LPS/zVAD.fmk toxicity, in words” value (RAW264.7 cells) was “protects from CICD induced by LPS in macrophage cells; also recorded: efficiently inhibited LPS-mediated sensitization of RAW264.7 cells to dose-dependent toxicity of zVAD.fmk” and the “inhibition of CICD in 3T3 cells, in words” value (BALB/c 3T3 cells) was “inhibited all published examples of necrotic cell death induced by DR activation in the presence of caspase inhibitors”.
